Results reported in patent US9150592B2, “Heterocyclic nuclear hormone receptor modulators” (AbbVie Inc., priority 2012, dated 2015).

How the values were obtained:
[1] = target: T1, Glucocorticoid Receptor (GR) (Homo sapiens, UniProt P04150); assay: GR Fluorescence Polarization Assay (PolarScreen Glucocorticoid Receptor Competitor Assay, Red); settings: IC50 class ranges, read-out: GR binding
T1 construct: purchased Invitrogen P2893
T1 sequence (P04150 1-777): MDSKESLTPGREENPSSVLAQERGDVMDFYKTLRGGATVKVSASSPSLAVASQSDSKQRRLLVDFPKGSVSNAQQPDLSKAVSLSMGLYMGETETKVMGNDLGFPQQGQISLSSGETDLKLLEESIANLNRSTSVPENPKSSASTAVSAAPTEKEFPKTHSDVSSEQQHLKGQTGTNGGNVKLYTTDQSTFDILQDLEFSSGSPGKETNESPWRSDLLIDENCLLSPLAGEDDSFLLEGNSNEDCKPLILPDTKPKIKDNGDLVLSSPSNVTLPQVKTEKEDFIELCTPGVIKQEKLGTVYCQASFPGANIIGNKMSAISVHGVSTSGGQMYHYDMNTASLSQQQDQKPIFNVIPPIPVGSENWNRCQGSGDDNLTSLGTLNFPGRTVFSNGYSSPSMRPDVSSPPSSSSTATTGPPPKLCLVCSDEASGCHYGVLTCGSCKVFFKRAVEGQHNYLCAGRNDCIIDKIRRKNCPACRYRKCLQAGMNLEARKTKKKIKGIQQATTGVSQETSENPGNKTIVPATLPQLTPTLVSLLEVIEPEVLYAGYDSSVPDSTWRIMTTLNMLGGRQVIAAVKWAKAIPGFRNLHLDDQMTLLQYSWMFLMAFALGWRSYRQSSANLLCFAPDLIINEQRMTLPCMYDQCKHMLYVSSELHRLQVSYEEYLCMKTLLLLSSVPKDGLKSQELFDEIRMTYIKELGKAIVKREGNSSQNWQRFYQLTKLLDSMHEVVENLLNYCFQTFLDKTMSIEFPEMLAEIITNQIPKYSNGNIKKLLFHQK
Summary of the method: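 Competitive fluorescence-polarization assay using a red fluorescent glucocorticoid tracer with human GR in kit buffer. Compounds serially diluted 1:4 in DMSO, incubated with tracer and GR overnight at 4° C, then polarization read.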

[2] = tested on: IL-6 in A549 cells stimulated with IL-1β; assay: A549 Cell Assay to Measure Inflammation Markers (inhibition of IL-1β-induced IL-6); format: cell-based; settings: Homo sapiens, intrinsic activity, Emax class ranges
Summary of the method: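 Compound pre-incubated with A549 cells 1 h at 37 °C, then stimulated with IL-1β (1 ng/mL final, 0.1% DMSO). Supernatant IL-6 quantified by MSD immunoassay after a further incubation. IC50 and Emax derived.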

[3] = A549, A549 Cell Assay to Measure Inflammation Markers

SMILES	IC50 [1]	Emax [2, 3]	Emax ([2]; A549 Cell Assay to Measure Inflammation Markers)
Cc1nn(C)c2c1C(c1ccc(Cl)cc1Cl)SC(C)(C)CN2C (stereo not shown)	100 to 1000 nM	< 50%	
CN(C)c1ccc(-c2nn(C)c3c2C(c2ccc(Cl)cc2Cl)SCCN3)cc1 (stereo not shown) [D.31]	1000 to 10000 nM	< 50%	
Cc1cc(Cl)ccc1[C@H]1S[C@@H](CCO)CNc2c1c(C)nn2C (single isomer, unassigned) [M.15, 2-[4-(4-chloro-2-methyl-phenyl)-1,3-dimethyl-4,6,7,8-tetrahydro-1H-pyrazolo[3,4-e][1,4]thiazepin-6-yl]-ethanol]	100 to 1000 nM	> 70%	
Cn1nc(-c2ccccn2)c2c1NC(=O)CSC2c1ccc(Br)cc1Cl (stereo not shown) [C.2, 4-(4-bromo-2-chloro-phenyl)-1-methyl-3-(2-pyridyl)-4,8-dihydropyrazolo[3,4-e][1,4]thiazepin-7-one]	100 to 1000 nM		< 50%
Cn1nc(-c2ccc(Br)cn2)c2c1NCCSC2c1ccc(Cl)cc1Cl (stereo not shown) [D.15, 3-(5-bromo-2-pyridyl)-4-(2,4-dichlorophenyl)-1-methyl-4,6,7,8-tetrahydropyrazolo[3,4-e][1,4]thiazepine]	< 100 nM	< 50%	
